Results from patent US8536202B2, “Triazole-substituted anthranilamides as pesticides” (Bayer Cropscience AG, priority 2010, dated 2013).
Like-named read-outs stand apart in the source and are kept apart here.

Columns and labels:
[1] = log P determination by HPLC on reversed-phase columns (EEC Directive 79/831 Annex V.A8); type: physicochemical; conditions: pH 2.7
How it was run: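 log P from reversed-phase LC-MS retention at pH 2.7, 0.1% formic acid water/acetonitrile gradient 10–95% acetonitrile. Calibrated against C3–C16 unbranched alkan-2-ones, interpolating linearly between adjacent alkanones.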

[2] = tested on: larvae of the mustard beetle (Phaedon cochleariae); assay: Phaedon test (PHAECO spray treatment); type: in vivo; conditions: 168 h, read-out: activity in %
How it was run: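 Compound dissolved in acetone/dimethylformamide with alkylaryl polyglycol ether emulsifier, then diluted with emulsifier-containing water to test concentration for spray treatment of Phaedon cochleariae larvae. Activity scored after 7 days as % larvae killed (100% = all dead, 0% = none).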

[3] = tested on: caterpillars of the armyworm (Spodoptera frugiperda); assay: Spodoptera frugiperda test (SPODFR spray treatment); type: in vivo; conditions: 168 h, read-out: activity in %
How it was run: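 Maize leaf discs sprayed with compound diluted in emulsifier-containing water (acetone/DMF solvent, alkylaryl polyglycol ether emulsifier), dried, then infested with armyworm caterpillars. Kill scored after 7 days as % mortality, 100% = all caterpillars dead, 0% = none.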

[4] = reversed-phase C18 HPLC column, HPLC on reversed-phase columns (C 18), EEC Directive 79/831 Annex V.A8, read-out: logP
[5] = HPLC on reversed-phase columns (C 18), EEC Directive 79/831 Annex V.A8, read-out: logP

Row | chromatographic logP [1, 4] | Compound | pest or weed control at 100 g/ha ([2]; 100 g/ha, after 7 days) | pest or weed control at 100 g/ha ([3]; 100 g/ha, after 7 days) | chromatographic logP [1] | chromatographic logP [1, 5] | pest or weed control at 100 g/ha [2] | pest or weed control at 100 g/ha [3]
1 | 4.9 | Cc1cc(I)cc(C(=O)NC(C)(C)C)c1NC(=O)c1cc(Cn2ncc(C(F)(C(F)(F)F)C(F)(F)F)n2)nn1-c1ncccc1Cl [Example 268] | 100% | 100% |  |  |  | 
2 |  | Cc1cc(F)cc(C(=O)NC(C)C2CC2)c1NC(=O)c1cc(Cn2ncc(C(F)(F)F)n2)nn1-c1ncccc1Cl (stereo not drawn) [Example 168] | 100% | 100% | 3.36 |  |  | 
3 | 3.88 | CNC(=O)c1cc(C#N)cc(C)c1NC(=O)c1cc(Cn2ncc(C(F)(C(F)(F)F)C(F)(F)F)n2)nn1-c1ccccc1Cl [Example 297] | 100% | 100% |  |  |  | 
4 |  | Cc1cc(Cl)cc(C(=O)NC(C)C)c1NC(=O)c1cc(Cn2cc(C(F)(F)F)nn2)nn1-c1ncccc1Cl [Example 190] | 100% | 100% | 3.06 |  |  | 
5 |  | Cc1cc(C#N)cc(C(=O)NC(C)(C)C)c1NC(=O)c1cc(Cn2nc3ccc(Br)cc3n2)nn1-c1ncccc1Cl [Example 107] | 100% | 100% | 3.85 |  |  | 
6 |  | Cc1cc(C#N)cc(C(=O)NC(C)C)c1NC(=O)c1cc(Cn2nc(C(F)(F)F)c(C(F)(F)F)n2)nn1-c1ncccc1Cl [Example 398] | 100% | 100% | 3.84 |  |  | 
7 |  | CNC(=O)c1cc(C#N)cc(C)c1NC(=O)c1cc(Cn2nnc3cc(Br)ccc32)nn1-c1ncccc1Cl [Example 94] | 100% | 100% | 2.66 |  |  | 
8 |  | Cc1cc(I)cc(C(=O)NC(C)(C)C)c1NC(=O)c1cc(Cn2ncc(C(F)(F)C(F)(F)C(F)(F)F)n2)nn1-c1ncccc1Cl [Example 385] |  |  |  | 4.89 | 100% | 100%
9 |  | Cc1cc(I)cc(C(=O)NCC2CC2)c1NC(=O)c1cc(Cn2nc(C(F)(F)F)c(C(F)(F)F)n2)nn1-c1ncccc1Cl [Example 401] | 100% | 100% | 4.52 |  |  | 
10 |  | Cc1cc(I)cc(C(=O)NCC2CC2)c1NC(=O)c1cc(Cn2cc(C(F)(F)C(F)(F)C(F)(F)F)nn2)nn1-c1ncccc1Cl [Example 333] |  |  |  | 4.13 | 100% | 100%
11 |  | Cc1cc(Cl)cc(C(=O)NC(C)C)c1NC(=O)c1cc(Cn2ncc(C(F)(C(F)(F)F)C(F)(F)F)n2)nn1-c1ncccc1Cl [Example 259] | 100% | 100% | 4.3 |  |  | 
12 |  | Cc1cc(I)cc(C(=O)NC2CC2)c1NC(=O)c1cc(Cn2cc(C(F)(C(F)(F)F)C(F)(F)F)nn2)nn1-c1ncccc1Cl [Example 240] | 100% | 100% | 3.83 |  |  | 
13 | 3.84 | O=C(NCC1CC1)c1cc(Cl)cc(Cl)c1NC(=O)c1cc(Cn2cc(C(F)(C(F)(F)F)C(F)(F)F)nn2)nn1-c1ncccc1Cl [Example 245] | 100% | 100% |  |  |  | 
14 |  | CSC[C@H](C)NC(=O)c1cc(Cl)cc(Cl)c1NC(=O)c1cc(Cn2cc(C(F)(F)F)nn2)nn1-c1ncccc1Cl [Example 202] | 100% | 100% | 3.28 |  |  | 
15 |  | CNC(=O)c1cc(I)cc(C)c1NC(=O)c1cc(Cn2ncc(C(F)(F)C(F)(F)C(F)(F)F)n2)nn1-c1ncccc1Cl [Example 377] |  |  |  | 4 | 100% | 100%
16 |  | Cc1cc(I)cc(C(=O)NC(C)(C)C)c1NC(=O)c1cc(Cn2cc(C(F)(F)C(F)(F)C(F)(F)F)nn2)nn1-c1ncccc1Cl [Example 334] |  |  |  | 4.42 | 100% | 100%
17 |  | Cc1cc(I)cc(C(=O)NC2CC2)c1NC(=O)c1cc(Cn2ncc(C(F)(F)F)n2)nn1-c1ncccc1Cl [Example 159] | 100% | 100% | 3.45 |  |  | 
18 |  | CNC(=O)c1cc(Cl)cc(C)c1NC(=O)c1cc(Cn2nnc3cc([N+](=O)[O-])ccc32)nn1-c1ncccc1Cl [Example 71] | 100% | 100% | 2.64 |  |  | 
19 |  | Cc1cc(Br)cc(C(=O)NC(C)(C)C)c1NC(=O)c1cc(Cn2ncc(C(F)(F)F)n2)nn1-c1ncccc1Cl [Example 176] | 100% | 100% | 4.65 |  |  | 
20 |  | CNC(=O)c1cc(C#N)cc(C)c1NC(=O)c1cc(Cn2nnc3cc(Br)c(C(F)(F)F)cc32)nn1-c1ncccc1Cl [Example 97] | 100% | 100% | 3.27 |  |  | 
21 |  | CNC(=O)c1cc(C#N)cc(C)c1NC(=O)c1cc(Cn2ncc(-c3ccccc3Cl)n2)nn1-c1ncccc1Cl [Example 43] | 100% | 100% | 3.21 |  |  | 
22 |  | Cc1cc(C#N)cc(C(=O)NC(C)C)c1NC(=O)c1cc(Cn2nncc2C(F)(F)F)nn1-c1ncccc1Cl [Example 216] | 100% | 100% | 2.63 |  |  | 
23 | 4.59 | Cc1cc(C#N)cc(C(=O)NC(C)(C)C)c1NC(=O)c1cc(Cn2nc3cc(OC(F)(F)F)cc(Br)c3n2)nn1-c1ncccc1Cl [Example 112] | 100% | 100% |  |  |  | 
24 |  | Cc1cc(Cl)cc(C(=O)NC(C)C2CC2)c1NC(=O)c1cc(Cn2ncc(C(F)(F)C(F)(F)F)n2)nn1-c1ncccc1Cl (stereo not drawn) [Example 351] | 100% | 100% | 4.21 |  |  | 
25 | 4.2 | Cc1cc(C#N)cc(C(=O)NC(C)C2CC2)c1NC(=O)c1cc(Cn2ncc(C(F)(C(F)(F)F)C(F)(F)F)n2)nn1-c1ncccc1Cl (stereo not drawn) [Example 250] | 100% | 100% |  |  |  | 
26 |  | O=C(NCC1CC1)c1cc(Cl)cc(Cl)c1NC(=O)c1cc(Cn2cc(C(F)(F)F)nn2)nn1-c1ncccc1Cl [Example 204] | 100% | 100% | 3.14 |  |  | 
27 |  | CNC(=O)c1cc(I)cc(C)c1NC(=O)c1cc(Cn2cc(C(F)(F)F)nn2)nn1-c1ncccc1Cl [Example 206] | 100% | 100% | 2.86 |  |  | 
28 |  | CNC(=O)c1cc(F)cc(C)c1NC(=O)c1cc(Cn2ncc(C(F)(F)F)n2)nn1-c1ncccc1Cl [Example 167] | 100% | 100% | 2.63 |  |  | 
29 |  | CCNC(=O)c1cc(I)cc(C)c1NC(=O)c1cc(Cn2cc(C(F)(F)F)nn2)nn1-c1ncccc1Cl [Example 209] | 100% | 100% | 3.04 |  |  | 
30 |  | CNC(=O)c1cc(C#N)cc(C)c1NC(=O)c1cc(Cn2nc3cc(Cl)c(Cl)cc3n2)nn1-c1ncccc1Cl [Example 81] | 100% | 100% | 3.35 |  |  | 
